The assay has as its target human F508del-CFTR (Homo sapiens, UniProt P13569, DEL508-508). Put plainly: F508del-CFTR cell surface expression (corrector activity), DiscoveRx ß-galactosidase complementation chemiluminescence assay in recombinant U2OS cell line.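 On all read-outs here: U2OS cells co-expressing ProLink-tagged F508del-CFTR and a membrane-anchored enzyme acceptor, where more surface CFTR restores β-galactosidase activity measured by chemiluminescence.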 Conditions: U2OS cells, 16h compound incubation; for EC50: EC50, F508del-CFTR cell surface expression, geomean of several measurements; for Emax: U2OS, in relation to the Emax of the corrector lumacaftor (=100%), arithmetic mean.

Molecules are shown by their SMILES.

Chain of human F508del-CFTR (P13569 with tags, fused parts or gaps DEL508-508): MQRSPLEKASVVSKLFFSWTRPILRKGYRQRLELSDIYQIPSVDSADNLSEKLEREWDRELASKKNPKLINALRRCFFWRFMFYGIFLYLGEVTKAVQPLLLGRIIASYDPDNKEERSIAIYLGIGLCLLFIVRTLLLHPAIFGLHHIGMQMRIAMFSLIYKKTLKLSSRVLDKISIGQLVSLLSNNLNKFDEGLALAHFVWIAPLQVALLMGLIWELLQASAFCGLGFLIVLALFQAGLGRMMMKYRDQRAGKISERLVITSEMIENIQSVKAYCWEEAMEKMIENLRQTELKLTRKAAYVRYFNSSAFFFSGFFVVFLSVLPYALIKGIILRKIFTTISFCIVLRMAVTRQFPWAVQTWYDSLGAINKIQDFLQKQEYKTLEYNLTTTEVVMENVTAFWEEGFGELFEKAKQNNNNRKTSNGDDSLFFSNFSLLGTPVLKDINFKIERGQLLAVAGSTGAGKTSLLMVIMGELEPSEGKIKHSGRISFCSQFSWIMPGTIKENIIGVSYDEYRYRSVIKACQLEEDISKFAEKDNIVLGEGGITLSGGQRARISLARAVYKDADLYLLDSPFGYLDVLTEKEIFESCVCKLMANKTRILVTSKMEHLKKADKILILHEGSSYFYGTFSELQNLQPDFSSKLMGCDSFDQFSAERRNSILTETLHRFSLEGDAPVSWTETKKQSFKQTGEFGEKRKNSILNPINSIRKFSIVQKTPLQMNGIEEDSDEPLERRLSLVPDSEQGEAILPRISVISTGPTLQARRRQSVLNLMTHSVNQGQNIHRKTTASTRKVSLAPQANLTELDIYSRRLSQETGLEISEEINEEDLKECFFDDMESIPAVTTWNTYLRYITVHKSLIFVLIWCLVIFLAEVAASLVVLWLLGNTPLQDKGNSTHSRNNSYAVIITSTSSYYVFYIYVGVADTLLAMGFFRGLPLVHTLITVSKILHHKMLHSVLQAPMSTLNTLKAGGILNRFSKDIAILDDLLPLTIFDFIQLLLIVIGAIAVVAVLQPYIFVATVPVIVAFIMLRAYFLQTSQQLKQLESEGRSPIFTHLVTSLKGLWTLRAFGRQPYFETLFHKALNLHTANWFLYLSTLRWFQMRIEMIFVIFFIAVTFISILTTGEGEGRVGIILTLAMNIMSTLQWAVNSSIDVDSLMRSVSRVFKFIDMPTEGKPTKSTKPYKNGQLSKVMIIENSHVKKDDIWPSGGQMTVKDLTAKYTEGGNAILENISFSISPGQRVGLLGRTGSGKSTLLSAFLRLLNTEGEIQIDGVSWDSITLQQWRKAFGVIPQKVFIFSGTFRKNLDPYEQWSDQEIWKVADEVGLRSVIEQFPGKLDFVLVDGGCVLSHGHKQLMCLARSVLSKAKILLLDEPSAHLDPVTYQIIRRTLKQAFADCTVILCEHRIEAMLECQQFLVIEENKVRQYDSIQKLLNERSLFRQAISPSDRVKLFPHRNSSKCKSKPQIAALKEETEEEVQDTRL

By EC50 is commonly meant the concentration that produces a half-maximal response. As usually defined, the Emax is the greatest response seen or fitted, relative to the assay's reference. Turning to `Cc1cc2c3c(ccc2cn1)OC[C@@H](Cc1ccccc1)NC(=O)[C@@H](C)N(C)C(=O)[C@H](CC(C)C)N(C)C(=O)C[C@@H](C(=O)NCCc1nc(C2CC2)no1)NC3=O` [Example 826, (3S,7S,10R,13R)-13-benzyl-N-(2-(3-cyclopropyl-1,2,4-oxadiazol-5-yl)ethyl)-7-isobutyl-6,9,10,20-tetramethyl-1,5,8,11-tetraoxo-1,2,3,4,5,6,7,8,9,10,11,12,13,14-tetradecahydro-[1]oxa[4,7,10,14]tetraazacycloheptadecino[16,17-f]isoquinoline-3-carboxamide], the 50% effective concentration (EC50) turned out to be 283 nM and the maximal response (Emax) came out at 340%.

Consider `COc1cc(CCNC(=O)[C@@H]2CC(=O)N(C)[C@@H](CC(C)C)C(=O)N(C)[C@H](CN3CCC(F)(F)C3)C(=O)N[C@H](Cc3ccccc3)COc3cnc4ccc(F)cc4c3C(=O)N2)on1` [Example 827, (3S,7S,10R,13R)-13-benzyl-10-((3,3-difluoropyrrolidin-1-yl)methyl)-20-fluoro-7-isobutyl-N-(2-(3-methoxyisoxazol-5-yl)ethyl)-6,9-dimethyl-1,5,8,11-tetraoxo-1,2,3,4,5,6,7,8,9,10,11,12,13,14-tetradecahydro-[1]oxa[4,7,10,14]tetraazacycloheptadecino[17,16-c]quinoline-3-carboxamide], for which the EC50 amounted to 54 nM and the Emax worked out at 379%.

Take `COc1nc(C)cc2c1C(=O)N[C@H](C(=O)NC[C@@H](O)c1ccccc1)CC(=O)N(C)[C@@H](CC(C)C)C(=O)N(C)[C@H](CC(C)C)C(=O)N[C@H](Cc1ccccc1)CO2` [Example 828, (3R,6R,9S,13S)-3-benzyl-N-((S)-2-hydroxy-2-phenylethyl)-6,9-diisobutyl-16-methoxy-7,10,18-trimethyl-5,8,11,15-tetraoxo-2,3,4,5,6,7,8,9,10,11,12,13,14,15-tetradecahydropyrido[3,4-p][1]oxa[4,7,10,14]tetraazacycloheptadecine-13-carboxamide]: the EC50 worked out at 299 nM and the Emax was determined as 317%.

In the case of `CC(C)C[C@H]1C(=O)N2CCCC[C@@H]2C(=O)N[C@H](Cc2ccccc2)COc2ccc3ncc(F)cc3c2C(=O)N[C@H](C(=O)NCCn2nnc(C3CC3)n2)CC(=O)N1C` [Example 829, (9S,13S,19aR,22R)-22-benzyl-N-(2-(5-cyclopropyl-2H-tetrazol-2-yl)ethyl)-5-fluoro-13-isobutyl-12-methyl-7,11,14,20-tetraoxo-7,8,9,10,11,12,13,14,17,18,19,19a,20,21,22,23-hexadecahydro-16H-pyrido[2′,1′:6,7][1]oxa[4,7,10,14]tetraazacycloheptadecino[16,17-f]quinoline-9-carboxamide], the EC50 was 142 nM and the Emax was determined as 320%.

For `COCCn1cc(CCNC(=O)[C@@H]2CC(=O)N(C)[C@@H](CC(C)C)C(=O)N(C)C3(CC3)C(=O)N[C@H](Cc3ccccc3)COc3cnc4ccc(F)cc4c3C(=O)N2)cn1` [Example 830, (3′S,7′S,13′R)-13′-benzyl-20′-fluoro-7′-isobutyl-N-(2-(1-(2-methoxyethyl)-1H-pyrazol-4-yl)ethyl)-6′,9′-dimethyl-1′,5′,8′,11′-tetraoxo-2′,3′,4′,5′,6′,7′,8′,9′,11′,12′,13′,14′-dodecahydro-1′H-spiro[cyclopropane-1,10′-[1]oxa[4,7,10,14]tetraazacycloheptadecino[17,16-c]quinoline]-3′-carboxamide], the EC50 is 1040 nM and the Emax was found to be 310%.

With `COc1nccc2c1C(=O)N[C@H](C(=O)NCC(F)(F)c1nc(C3CC3)no1)CC(=O)N(C)[C@@H](CC(C)C)C(=O)N1CCCC[C@@H]1C(=O)N[C@H](Cc1ccccc1)CO2` [Example 831, (7S,11S,17aR,20R)-20-benzyl-N-(2-(3-cyclopropyl-1,2,4-oxadiazol-5-yl)-2,2-difluoroethyl)-11-isobutyl-4-methoxy-10-methyl-5,9,12,18-tetraoxo-5,6,7,8,9,10,11,12,15,16,17,17a,18,19,20,21-hexadecahydro-14H-dipyrido[2,1-f:3′,4′-p][1]oxa[4,7,10,14]tetraazacycloheptadecine-7-carboxamide], the concentration for a half-maximal effect (EC50) worked out at 491 nM and the Emax came out at 231%.

Regarding `COc1nccc2c1C(=O)N[C@H](C(=O)NCCn1nc3ccccc3n1)CC(=O)N(C)[C@@H](CC(C)C)C(=O)N1CCCC[C@@H]1C(=O)N[C@H](Cc1ccccc1)CO2` [Example 832, (7S,11S,17aR,20R)-N-(2-(2H-benzo[d][1,2,3]triazol-2-yl)ethyl)-20-benzyl-11-isobutyl-4-methoxy-10-methyl-5,9,12,18-tetraoxo-5,6,7,8,9,10,11,12,15,16,17,17a,18,19,20,21-hexadecahydro-14H-dipyrido[2,1-f:3′,4′-p][1]oxa[4,7,10,14]tetraazacycloheptadecine-7-carboxamide], the EC50 is 518 nM and the maximal effect (Emax) came to 367%.

Regarding `COc1nccc2c1C(=O)N[C@H](C(=O)NCCn1nnc(C3CC3)n1)CC(=O)N(C)[C@@H](CC(C)C)C(=O)N1CCCC[C@@H]1C(=O)N[C@H](Cc1ccccc1)CO2` [Example 833, (7S,11S,17aR,20R)-20-benzyl-N-(2-(5-cyclopropyl-2H-tetrazol-2-yl)ethyl)-11-isobutyl-4-methoxy-10-methyl-5,9,12,18-tetraoxo-5,6,7,8,9,10,11,12,15,16,17,17a,18,19,20,21-hexadecahydro-14H-dipyrido[2,1-f:3′,4′-p][1]oxa[4,7,10,14]tetraazacycloheptadecine-7-carboxamide], the EC50 came out at 615 nM and the maximal response (Emax) was 411%.

For the molecule `C#Cc1nn(CCNC(=O)[C@@H]2CC(=O)N(C)[C@@H](CC(C)C)C(=O)N3CCCC[C@@H]3C(=O)N[C@H](Cc3ccccc3)COc3cc(C)nc(OC)c3C(=O)N2)nc1C` [Example 834, (7S,11S,17aR,20R)-20-benzyl-N-(2-(4-ethynyl-5-methyl-2H-1,2,3-triazol-2-yl)ethyl)-11-isobutyl-4-methoxy-2,10-dimethyl-5,9,12,18-tetraoxo-5,6,7,8,9,10,11,12,15,16,17,17a,18,19,20,21-hexadecahydro-14H-dipyrido[2,1-f:3′,4′-p][1]oxa[4,7,10,14]tetraazacycloheptadecine-7-carboxamide], the EC50 was determined as 240 nM and the Emax was 300%.

For `COc1nc(C)cc2c1C(=O)N[C@H](C(=O)NCCn1nnc(C3CC3)n1)CC(=O)N(C)[C@@H](CC(C)C)C(=O)N1CCCC[C@@H]1C(=O)N[C@H](Cc1ccccc1)CO2` [Example 835, (7S,11S,17aR,20R)-20-benzyl-N-(2-(5-cyclopropyl-2H-tetrazol-2-yl)ethyl)-11-isobutyl-4-methoxy-2,10-dimethyl-5,9,12,18-tetraoxo-5,6,7,8,9,10,11,12,15,16,17,17a,18,19,20,21-hexadecahydro-14H-dipyrido[2,1-f:3′,4′-p][1]oxa[4,7,10,14]tetraazacycloheptadecine-7-carboxamide], the EC50 is 363 nM and the Emax came to 326%.

`COc1nc(C)cc2c1C(=O)N[C@H](C(=O)NCCn1ncc(C#N)n1)CC(=O)N(C)[C@@H](CC(C)C)C(=O)N1CCCC[C@@H]1C(=O)N[C@H](Cc1ccccc1)CO2` [Example 836, (7S,11S,17aR,20R)-20-benzyl-N-(2-(4-cyano-2H-1,2,3-triazol-2-yl)ethyl)-11-isobutyl-4-methoxy-2,10-dimethyl-5,9,12,18-tetraoxo-5,6,7,8,9,10,11,12,15,16,17,17a,18,19,20,21-hexadecahydro-14H-dipyrido[2,1-f:3′,4′-p][1]oxa[4,7,10,14]tetraazacycloheptadecine-7-carboxamide]: the half-maximal effective concentration (EC50) was 967 nM and the Emax was found to be 257%.

With `CC(C)C[C@H]1C(=O)N(C)[C@H](Cc2nc(-c3ccc(F)cn3)no2)C(=O)N[C@H](Cc2ccccc2)COc2cnc3ccc(F)cc3c2C(=O)N[C@H](C(=O)NCCn2ncc(C3CC3)n2)CC(=O)N1C` [Example 837, (3S,7S,10R,13R)-13-benzyl-N-(2-(4-cyclopropyl-2H-1,2,3-triazol-2-yl)ethyl)-20-fluoro-10-((3-(5-fluoropyridin-2-yl)-1,2,4-oxadiazol-5-yl)methyl)-7-isobutyl-6,9-dimethyl-1,5,8,11-tetraoxo-1,2,3,4,5,6,7,8,9,10,11,12,13,14-tetradecahydro-[1]oxa[4,7,10,14]tetraazacycloheptadecino[17,16-c]quinoline-3-carboxamide], the concentration for a half-maximal effect (EC50) was found to be 198 nM and the Emax was 358%.

For `CC(C)C[C@H]1C(=O)N(C)C2(CC(F)(F)C2)C(=O)N[C@H](Cc2ccccc2)COc2cnc3ccc(F)cc3c2C(=O)N[C@H](C(=O)NCCn2nnc(C3CC3)n2)CC(=O)N1C` [Example 838, (3′S,7′S,13′R)-13′-benzyl-N-(2-(5-cyclopropyl-2H-tetrazol-2-yl)ethyl)-3,3,20′-trifluoro-7′-isobutyl-6′,9′-dimethyl-1′,5′,8′,11′-tetraoxo-2′,3′,4′,5′,6′,7′,8′,9′,11′,12′,13′,14′-dodecahydro-1′H-spiro[cyclobutane-1,10′-[1]oxa[4,7,10,14]tetraazacycloheptadecino[17,16-c]quinoline]-3′-carboxamide], the EC50 was found to be 118 nM and the Emax worked out at 358%.

Take `COc1cc(CCNC(=O)[C@@H]2CC(=O)N(C)[C@@H](CC(C)C)C(=O)N(C)C3(CC(F)(F)C3)C(=O)N[C@H](Cc3ccccc3)COc3cnc4ccc(F)cc4c3C(=O)N2)on1` [Example 839, (3′S,7′S,13′R)-13′-benzyl-3,3,20′-trifluoro-7′-isobutyl-N-(2-(3-methoxyisoxazol-5-yl)ethyl)-6′,9′-dimethyl-1′,5′,8′,11′-tetraoxo-2′,3′,4′,5′,6′,7′,8′,9′,11′,12′,13′,14′-dodecahydro-1′H-spiro[cyclobutane-1,10′-[1]oxa[4,7,10,14]tetraazacycloheptadecino[17,16-c]quinoline]-3′-carboxamide]: the EC50 was 123 nM and the Emax was 336%.

The values are drawn from patent US20240208992A1, “MACROCYCLES AS CFTR MODULATORS” (Idorsia Pharmaceuticals Ltd, priority 2021, published 2024).
